This is an account of results in patent US20070082880A1 (priority 2005, published 2007).

One data set concerns the target PKCθ (Homo sapiens, UniProt Q04759). In words: PKCθ Scintiplate Assay. Format: biochemical. The settings on record: average value when one or more samples were tested. As for the experimental part: This assay detects the phosphorylation of a biotinylated substrate by kinase utilizing radiolabeled ATP (ATP γ P33). The enzyme is either recombinant full length PKCθ (Panvera, P2996) or the purified recombinant active kinase domain of full length PKCθ (amino acids 362-706). The substrate in this assay is a biotinylated peptide with a sequence of biotin-[…]-CONH2. The assay buffer is composed of 100 mM Hepes, pH7.5, 2 mM MgCl2, 20 mM β-glycerophosphate and 0.008% TritonX 100. A reaction mixture of ATP, ATP γ P33 (PerkinElmer), DTT, lipid activator, and the enzyme is prepared in the assay buffer and added to a 96 well polypropylene plate. The compound (diluted in DMSO in a separate 96-well polypropylene plate) is added to the reaction mixture and incubated at room temperature. Following the incubation, the peptide substrate is added to the reaction mixture to initiate the enzymatic reaction. The reaction is terminated with the addition of a stop solution (10 mM EDTA, 0.2% TritonX100, and 100 mM NaHPO4) and transferred from the assay plate to a washed streptavidin-coated 96 well scintiplate (PerkinElmer). The scintiplate is incubated at room temperature, washed in PBS with 0.1% TritonX 100, and counted in the 1450 Microbeta Trilux (Wallac, Version 2.60). Counts are recorded for each well as corrected counts per minute (CCPM). The counts are considered corrected because they are adjusted according to a P33 normalization protocol, which corrects for efficiency and background differences between the instrument detectors (software version 4.40.01).

Data set [1] concerns the target T1, human PKCθ full length enzyme (Homo sapiens, UniProt Q04759).
T1 construct: human PKCθ full length enzyme (Panvera Catalog No. P2996); purchased Panvera P2996
In words: PKCθ IMAP Assay. Format: biochemical. The settings on record: average value when one or more samples were tested; ATP 6 uM, PKCθ 1 nM. An outline of the steps: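 Full-length human PKCθ (1 nM final) with 6 uM ATP and 100 nM 5FAM-labelled peptide, 5% DMSO, 3.0 mM DTT in reaction buffer. 25 min at room temperature; IMAP bead binding 20 min, fluorescence polarization read. Compounds 2:1 serially diluted; no-ATP and no-enzyme wells as controls.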

Chain of PKCθ (Q04759 362-706 limits assumed): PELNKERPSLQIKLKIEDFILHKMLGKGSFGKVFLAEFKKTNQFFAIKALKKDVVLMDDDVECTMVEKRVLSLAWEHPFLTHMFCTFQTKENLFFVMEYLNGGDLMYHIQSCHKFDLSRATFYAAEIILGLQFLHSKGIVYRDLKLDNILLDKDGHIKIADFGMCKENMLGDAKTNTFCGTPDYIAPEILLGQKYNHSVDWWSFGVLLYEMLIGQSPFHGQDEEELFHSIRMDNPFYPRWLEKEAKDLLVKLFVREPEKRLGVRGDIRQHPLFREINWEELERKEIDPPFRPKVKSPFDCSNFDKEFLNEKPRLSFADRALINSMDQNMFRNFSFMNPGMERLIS
T1 sequence (Q04759 whole entry): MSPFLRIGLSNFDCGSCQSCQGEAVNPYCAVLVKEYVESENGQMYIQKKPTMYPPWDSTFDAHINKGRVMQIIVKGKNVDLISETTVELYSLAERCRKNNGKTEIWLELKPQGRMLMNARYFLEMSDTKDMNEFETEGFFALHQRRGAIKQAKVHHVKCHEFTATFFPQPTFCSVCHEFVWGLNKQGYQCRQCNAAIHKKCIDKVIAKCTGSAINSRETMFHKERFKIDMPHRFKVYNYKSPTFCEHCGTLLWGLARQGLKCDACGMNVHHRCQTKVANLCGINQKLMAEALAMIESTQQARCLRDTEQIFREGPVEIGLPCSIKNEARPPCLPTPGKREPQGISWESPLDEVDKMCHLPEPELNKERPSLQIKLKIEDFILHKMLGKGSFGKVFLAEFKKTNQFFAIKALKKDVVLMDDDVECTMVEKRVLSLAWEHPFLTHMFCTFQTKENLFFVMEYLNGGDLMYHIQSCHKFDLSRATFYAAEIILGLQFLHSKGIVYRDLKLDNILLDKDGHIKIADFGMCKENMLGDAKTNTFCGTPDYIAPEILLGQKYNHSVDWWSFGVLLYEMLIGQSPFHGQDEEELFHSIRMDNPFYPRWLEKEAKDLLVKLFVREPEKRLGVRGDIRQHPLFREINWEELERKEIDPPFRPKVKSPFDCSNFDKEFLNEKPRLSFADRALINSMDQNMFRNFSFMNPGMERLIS

For orientation: IC50 means the concentration at which inhibition is half-maximal. A higher IC50 goes with a need for much substance. With `N#Cc1cnc2sc(-c3cccc(CN4CCN(CCc5ccccc5)CC4)c3)cc2c1Nc1ccc2[nH]ccc2c1` [Compound 152, 4-(1H-indol-5-ylamino)-2-(3-{[4-(2-phenylethyl)piperazin-1-yl]methyl}phenyl)thieno[2,3-b]pyridine-5-carbonitrile], the IC50 against PKCθ turned out to be 0.31 µM.
Compound `CN1CCN(Cc2ncc(-c3cc4c(Nc5ccc6[nH]ccc6c5)c(C#N)cnc4s3)n2C)CC1` [Compound 210] returned an IC50 on PKCθ of 0.58 µM.
Compound `Cc1cc(Nc2c(C#N)cnc3sc(-c4ccccc4)cc23)cc2cc[nH]c12` [Compound 120, 4-[(7-methyl-1H-indol-5-yl)amino]-2-phenylthieno[2,3-b]pyridine-5-carbonitrile] registered an IC50 against PKCθ of 120 µM.
The compound `N#Cc1cnc2sc(-c3ccc(CN4CCOCC4)cc3)cc2c1Nc1cccc2[nH]ccc12` [Compound 138, 4-(1H-indol-4-ylamino)-2-[4-(morpholin-4-ylmethyl)phenyl]thieno[2,3-b]pyridine-5-carbonitrile] had an IC50 against PKCθ of 0.19 µM.
`N#Cc1cnc2sc(C#Cc3ccccc3)cc2c1Nc1ccc2[nH]ccc2c1` [Compound 215, 4-(1H-indol-5-ylamino)-2-(phenylethynyl)thieno[2,3-b]pyridine-5-carbonitrile] returned an IC50 at PKCθ of 0.5 µM.
On the same count and under the same terms, for `N#Cc1cnc2sc(-c3ccccc3)cc2c1Nc1ccc2[nH]cnc2c1` [Compound 119, 4-(1H-benzimidazol-5-ylamino)-2-phenylthieno[2,3-b]pyridine-5-carbonitrile] the value was 9.1 µM.
The compound `CN1CCN(Cc2ccc(-c3cc4c(NCCc5c[nH]cn5)c(C#N)cnc4s3)cc2)CC1` [Compound 128, 4-{[2-(1H-imidazol-4-yl)ethyl]amino}-2-{4-[(4-methylpiperazin-1-yl)methyl]phenyl}thieno[2,3-b]pyridine-5-carbonitrile] displayed an IC50 on PKCθ of 7.3 µM.
Same read-out and setting: under `CN1CCN(Cc2cccc(-c3cc4c(Nc5ccc6[nH]ccc6c5)c(C#N)cnc4s3)c2)CC1` [Compound 145, 4-(1H-indol-5-ylamino)-2-{3-[(4-methylpiperazin-1-yl)methyl]phenyl}thieno[2,3-b]pyridine-5-carbonitrile] stands 0.09 µM.
The melting point is the temperature, or range, at which the solid turns liquid. Consider `N#Cc1cnc2sc(CCc3ccccc3)cc2c1Nc1ccc2[nH]ccc2c1` [Compound 316, 4-(1H-Indol-5-ylamino)-2-(2-phenylethyl)thieno[2,3-b]pyridine-5-carbonitrile], for which the melting point was 150 °C (dec.). The compound further came in with an IC50 in data set [1] of 1.69 µM.
The corresponding values for `N#Cc1c[n+]([O-])c2sc(-c3ccccc3)cc2c1Nc1ccc2[nH]ccc2c1` [Compound 500, 4-(1H-indol-5-ylamino)-2-phenylthieno[2,3-b]pyridine-5-carbonitrile 7-oxide] are above 245 °C and 16.8 µM.
For `CCN1CCN(CC/C=C/c2cc3c(Nc4ccc5[nH]ccc5c4)c(C#N)cnc3s2)CC1` [Compound 190, 2-[(1E)-4-(4-ethylpiperazin-1-yl)but-1-en-1-yl]-4-(1H-indol-5-ylamino)thieno[2,3-b]pyridine-5-carbonitrile], the IC50 against PKCθ was determined as 0.19 µM.
`Cc1c(Nc2c(C#N)cnc3sc(C#Cc4cncc(C(=O)N(C)C)c4)cc23)ccc2[nH]ccc12` [Compound 451, 5-({5-cyano-4-[(4-methyl-1H-indol-5-yl)amino]thieno[2,3-b]pyridin-2-yl}ethynyl)-N,N-dimethylnicotinamide] registered a melting point above 260 °C. Besides, the concentration for half-maximal inhibition (IC50) in data set [1] was 0.024 µM.
Taken in the same sequence, the figures for `Cc1c(Nc2c(C#N)cnc3sc(C4=CCN(S(C)(=O)=O)CC4)cc23)ccc2[nH]ccc12` [Compound 475, 4-[(4-methyl-1H-indol-5-yl)amino]-2-[1-(methylsulfonyl)-1,2,3,6-tetrahydropyridin-4-yl]thieno[2,3-b]pyridine-5-carbonitrile] were 228 °C and 0.031 µM.
Turning to `N#Cc1cnc2sc(Cl)cc2c1Nc1ccc2[nH]ccc2c1` [Compound 495, 2-chloro-4-(1H-indol-5-ylamino)thieno[2,3-b]pyridine-5-carbonitrile], the melting point was found to be 228 °C. The compound also showed an IC50 in data set [1] of 0.395 µM.
As for `CCOC(=O)CCc1cc2c(Nc3ccc4[nH]ccc4c3)c(C#N)cnc2s1` [Compound 284, ethyl 3-[5-cyano-4-(1H-indol-5-ylamino)thieno[2,3-b]pyridin-2-yl]propanoate], the melting point is 202 °C. Half-maximal inhibition in data set [1] (IC50) was put at 0.657 µM.
`Cc1c(Nc2c(C#N)cnc3sc(C(=O)O)cc23)ccc2[nH]ccc12` [Compound 247, 5-cyano-4-[(4-methyl-1H-indol-5-yl)amino]thieno[2,3-b]pyridine-2-carboxylic acid] yielded a melting point of 287 °C. The same compound returned an IC50 in data set [1] of 0.219 µM.
On PKCθ, `Cn1cncc1-c1cc2c(Nc3ccc4[nH]ccc4c3)c(C#N)cnc2s1` [Compound 205, 4-(1H-indol-5-ylamino)-2-(1-methyl-1H-imidazol-5-yl)thieno[2,3-b]pyridine-5-carbonitrile] had an IC50 of 0.18 µM.
Turning to `Cc1c(Nc2c(C#N)cnc3sc(CCC(=O)N4CCCC4)cc23)ccc2[nH]ccc12` [Compound 315, 4-[(4-methyl-1H-indol-5-yl)amino]-2-(3-oxo-3-pyrrolidin-1-ylpropyl)thieno[2,3-b]pyridine-5-carbonitrile], the melting point was 175 °C. The compound also registered a half-inhibitory concentration (IC50) in data set [1] of 0.251 µM.
Regarding `COC(=O)c1cc2c(Nc3ccc4[nH]ccc4c3C)c(C#N)cnc2s1` [Compound 245, methyl 5-cyano-4-[(4-methyl-1H-indol-5-yl)amino]thieno[2,3-b]pyridine-2-carboxylate], the melting point worked out at 255 °C. In addition, in data set [1], inhibition was half-maximal at 0.068 µM (IC50).
Taken in the same sequence, the figures for `CCOC(=O)/C=C/c1cc2c(Nc3ccc4[nH]ccc4c3)c(C#N)cnc2s1` [Compound 280, ethyl (2E)-3-[5-cyano-4-(1H-indol-5-ylamino)thieno[2,3-b]pyridin-2-yl]acrylate] were 226 °C and 0.605 µM.
In the case of `Cc1c(Nc2c(C#N)cnc3sc(C#Cc4cc(CN(C)C)ccn4)cc23)ccc2[nH]ccc12` [Compound 444, 2-({4-[(dimethylamino)methyl]pyridin-2-yl}ethynyl)-4-[(4-methyl-1H-indol-5-yl)amino]thieno[2,3-b]pyridine-5-carbonitrile], the melting point was above 250 °C. Moreover, in data set [1], the IC50 worked out at 0.176 µM.
Taken in the same sequence, the figures for `Cc1c(Nc2c(C#N)cnc3sc(/C=C/C(=O)O)c(C)c23)ccc2[nH]ccc12` [Compound 287, (2E)-3-{5-Cyano-3-methyl-4-[(4-methyl-1H-indol-5-yl)amino]thieno[2,3-b]pyridin-2-yl}acrylic acid] were 329 °C and 0.047 µM.
The corresponding values for `CN1CCN(CC/C=C/c2cc3c(Nc4ccc5[nH]ccc5c4)c(C#N)cnc3s2)CC1` [Compound 273, 4-(1H-indol-5-ylamino)-2-[(1E)-4-(4-methylpiperazin-1-yl)but-1-en-1-yl]thieno[2,3-b]pyridine-5-carbonitrile] are 220 °C and 0.447 µM.
Take `Cc1c(Nc2c(C#N)cnc3sc(C#Cc4ccc(CN(C)C)nc4)cc23)ccc2[nH]ccc12` [Compound 453, 2-({6-[(dimethylamino)methyl]pyridin-3-yl}ethynyl)-4-[(4-methyl-1H-indol-5-yl)amino]thieno[2,3-b]pyridine-5-carbonitrile]: the melting point was 230 to 232 °C. The same compound gave an IC50 in data set [1] of 0.06 µM.
